Reference: PubChem BioAssay (NCI)
Several values for one entry are separate records, joined by “and”; a condition that tells them apart may be missing. Equal values may be shown once.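 Following 48 hours of exposure in 96-well plates, responses at five concentrations were used to interpolate endpoints linearly. GI50 is the concentration that inhibits growth by half. The concentration for full growth arrest is given as TGI.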 Activity calls are given as the source filed them. Cut-off read from the data, not from the text of the source: active = GI50 below about 0.43 µM; inactive = the rest.

What was measured:
Assay in all cases: growth of human tumour cells (NCI), 48 h
[1] = tested on: DLD-1 colon
[2] = tested on: LOX IMVI melanoma
[3] = tested on: LXFL 529 NSCLC
[4] = tested on: MOLT-4 leukemia
[5] = tested on: OVCAR-3 ovarian
[6] = tested on: U251 CNS
[7] = tested on: UO-31 renal
[8] = tested on: HS 578T breast
[9] = tested on: MDA-MB-231 breast

In the case of `CCCCCCCCCCCCCCCCCC(=O)OCC(CN(C)CCN(C)C)OC(=O)CCCCCCCCCCCCCCCCC` (configuration not stated), the TGI [1] is reported as > 100 µM, the TGI [2] is reported as > 100 µM and the TGI [3] is reported as > 100 µM. For the same compound, the TGI [4] was 83.7 µM, the TGI [5] was > 100 µM and the TGI [6] was > 100 µM. For the same compound, the TGI [7] was > 100 µM.

With `COC(=O)C1CC(C(=O)OC)c2nc3cc(C)ccc3nc21` (configuration not stated) the TGI [1] was > 100 µM, the TGI [2] was > 100 µM and the TGI [3] was > 100 µM. The TGI [4] was > 100 µM, the TGI [5] was > 100 µM and the TGI [6] was > 100 µM. The TGI [7] was > 100 µM.

In the case of `COC(=O)C1=C(C)N(NC(N)=O)C2(N)N(NC(N)=O)C(C)=C(C(=O)OC)C12C(=O)OC` (configuration not stated), the TGI [1] is reported as > 100 µM, the TGI [2] is reported as > 100 µM and the TGI [3] is reported as > 100 µM. For the same compound, the TGI [4] was > 100 µM, the TGI [5] was > 10 µM and the TGI [6] was > 100 µM. For the same compound, the TGI [7] was > 100 µM.

For `COc1c(O)c2c(c3cc(C(=O)N4CCc5c4c(O)c(OC)c4[nH]c(C(=O)N6CC7CC78C6=CC(=O)c6[nH]cc(C)c68)cc54)[nH]c13)CCN2C(N)=O` (configuration not stated), the GI50 [1] was 3.41 ng/mL, the TGI [8] was 3.41 µM and the TGI [2] was 2.61 nM and 287 nM and 0.00412 µg/mL. For the same compound, the TGI [3] was 0.0329 µM, the outcome [3] was “inactive” and the TGI [9] was > 100 µM. For the same compound, the GI50 [4] was 6.42 ng/mL, the TGI [4] was 456 nM and 0.0737 µg/mL and the TGI [5] was 48.6 nM and > 100 µM and 0.0456 µg/mL. For the same compound, the TGI [6] was 2.66 nM and 305 nM and 0.00324 µg/mL and the GI50 [7] was 0.223 µM.

`O=C1c2cccc3cc([N+](=O)[O-])cc(c23)C(=O)N1CCNCCNCCNCCN1C(=O)c2cccc3cc([N+](=O)[O-])cc(c23)C1=O` was tested, and the TGI [1] was 0.272 µM, the TGI [3] was 0.496 µM and the TGI [4] was 1.13 µM. The TGI [5] was 0.343 µM and 0.94 µM, the TGI [6] was 0.0206 µM and the TGI [7] was 2.16 µM.

`CC(C)C(=O)/C=C/c1ccccc1` was tested, and the TGI [1] was > 100 µM, the TGI [2] was > 100 µM and the TGI [3] was > 100 µM. For the same compound, the TGI [4] was > 100 µM, the TGI [5] was > 100 µM and the TGI [6] was > 100 µM. For the same compound, the TGI [7] was > 100 µM.

With `COC(=O)C(CCS(=O)(=O)CC(=O)C(=O)Nc1cccc(C(C)=O)c1)C(=O)OC` the TGI [1] was > 100 µM, the TGI [2] was > 100 µM and the TGI [3] was > 100 µM. The TGI [4] was > 100 µM, the TGI [5] was > 100 µM and the TGI [6] was > 100 µM. For the same compound, the TGI [7] was > 100 µM.

With `C/C(O)=C(\N=O)C(=O)NCCc1ccccc1` the TGI [1] was > 100 µM, the TGI [2] was > 58 µM and the TGI [3] was > 100 µM. For the same compound, the TGI [4] was > 100 µM, the TGI [5] was > 100 µM and the TGI [6] was > 100 µM. For the same compound, the TGI [7] was > 100 µM.

With `O=S(=O)([O-])c1cccc2cccc(N=Cc3ccccc3[O-])c12.O=S(=O)([O-])c1cccc2cccc(N=Cc3ccccc3[O-])c12.[O]=[U]=[O]` the GI50 [1] was > 100 µM, the TGI [1] was > 100 µM and the GI50 [2] was 55.9 µM. The TGI [2] was > 100 µM, the GI50 [3] was 54.5 µM and the TGI [3] was > 100 µM. For the same compound, the GI50 [4] was 29 µM, the TGI [4] was > 100 µM and the GI50 [5] was > 100 µM. The TGI [5] was > 100 µM, the GI50 [6] was 30.8 µM and the TGI [6] was > 100 µM. For the same compound, the GI50 [7] was 50.7 µM and the TGI [7] was > 100 µM.

`Cc1cccc(C(C)(C)C)c1NC(=O)C(=O)C(C(=O)/C=C\c1ccccc1)C1OC(=O)c2ccccc21` (configuration not stated) was tested, and the TGI [1] was > 100 µM, the TGI [2] was > 100 µM and the TGI [3] was > 100 µM. For the same compound, the TGI [4] was > 100 µM, the TGI [5] was > 100 µM and the TGI [6] was > 100 µM. For the same compound, the TGI [7] was > 100 µM.

For `CC(O)/C=C/C(CCC(C)CO)C(C)C` (configuration not stated), the TGI [1] was > 100 µM, the TGI [2] was > 100 µM and the TGI [3] was > 100 µM. For the same compound, the TGI [4] was > 100 µM, the TGI [5] was > 100 µM and the TGI [6] was > 100 µM. The TGI [7] was > 100 µM.

With `CCCCCCCCCC(=O)CC(=O)c1ccc(O)cc1O` the TGI [1] was > 100 µM, the TGI [2] was 38.7 µM and the TGI [3] was > 100 µM. It also gave a TGI [4] of 49.7 µM, a TGI [5] of 45 µM and a TGI [6] of 64.9 µM. For the same compound, the TGI [7] was 98 µM.

For `O=C1C=C[C@@]23CC1C(O)C[C@H]2C=Cc1ccccc13` (some centres not stated), the TGI [1] was > 100 µM, the TGI [2] was > 100 µM and the TGI [3] was > 100 µM. The TGI [4] was > 100 µM, the TGI [5] was > 100 µM and the TGI [7] was > 100 µM.

`CCOC(=O)CC(=O)Sc1ccccc1` was tested, and the TGI [1] was 53.6 µM, the TGI [2] was 26.8 µM and the TGI [4] was 72.6 µM. It also gave a TGI [5] of 42.7 µM, a TGI [6] of 40.2 µM and a TGI [7] of 28.4 µM.

With `N#CC(C(=O)/C(=N/N)C(C#N)c1ccc(Cl)cc1)c1ccc(Cl)cc1` (configuration not stated) the TGI [1] was > 100 µM, the TGI [2] was > 100 µM and the TGI [3] was > 100 µM. For the same compound, the TGI [4] was > 100 µM, the TGI [5] was > 100 µM and the TGI [6] was > 100 µM. For the same compound, the TGI [7] was > 100 µM.

`CC(=O)OC1C(=O)C(O)C(C)OC1O[C@@H]1C[C@@]2(C)[C@@H]3CC=C4[C@@H](C[C@H](O)C(=O)C4(C)C)[C@]3(C)C(=O)C[C@]2(C)[C@H]1[C@@](C)(O)C(=O)/C=C/C(C)(C)O` (some centres not stated) was tested, and the TGI [1] was > 10 µM, the TGI [2] was 2.76 µM and the TGI [3] was > 10 µM. For the same compound, the TGI [4] was > 10 µM, the TGI [5] was 7.05 µM and the TGI [6] was 5.41 µM. It also gave a TGI [7] of 4.95 µM.

For `CCCN(CCCCC(NC(C)=O)C(=O)NCc1ccccc1)C(=O)NCCCl` (configuration not stated), the TGI [1] was > 100 µM, the TGI [3] was > 100 µM and the TGI [4] was > 100 µM. For the same compound, the TGI [5] was > 100 µM, the TGI [6] was > 100 µM and the TGI [7] was > 100 µM.

`O=C(/C=C/c1ccc(OCC(=O)N2CCN(c3ccccc3)CC2)cc1)c1ccc(Cl)cc1` was tested, and the TGI [1] was > 100 µM, the TGI [8] was 62.3 µM and the TGI [2] was > 100 µM. For the same compound, the TGI [3] was > 100 µM, the TGI [9] was > 86.3 µM and the TGI [4] was > 100 µM. The TGI [5] was > 100 µM, the TGI [6] was 46 µM and the TGI [7] was > 97.2 µM.

`Cc1ccc(NC(=O)CC2C(=O)Nc3ccccc3S2=O)cc1C` (configuration not stated) was tested, and the TGI [1] was > 100 µM, the TGI [2] was > 100 µM and the TGI [3] was > 100 µM. The TGI [4] was > 100 µM, the TGI [5] was > 100 µM and the TGI [6] was > 100 µM. For the same compound, the TGI [7] was > 100 µM.

In the case of `CC1OC(n2ncc(=O)[nH]c2=O)C=CC1=O` (configuration not stated), the GI50 [1] is reported as 77.2 µM and 31.2 µM, the TGI [1] is reported as > 100 µM and the TGI [2] is reported as > 100 µM. The TGI [3] was > 100 µM, the GI50 [4] was 81.1 µM and 30.2 µM and the TGI [4] was > 100 µM. The TGI [5] was > 100 µM, the TGI [6] was > 100 µM and the TGI [7] was > 100 µM.

With `CC(CN(CP(=O)([O-])[O-])CP(=O)([O-])[O-])N(CP(=O)([O-])[O-])CP(=O)([O-])[O-].N.N.[Pt+2]` (configuration not stated) the GI50 [1] was > 100 µM, the TGI [1] was > 100 µM and the GI50 [2] was > 100 µM. For the same compound, the TGI [2] was > 100 µM, the GI50 [3] was > 100 µM and the TGI [3] was > 100 µM. For the same compound, the GI50 [4] was > 100 µM, the TGI [4] was > 100 µM and the GI50 [5] was > 100 µM. For the same compound, the TGI [5] was > 100 µM, the GI50 [6] was > 100 µM and the TGI [6] was > 100 µM. The GI50 [7] was > 100 µM and the TGI [7] was > 100 µM.

`COc1ccc(/C=N/N=C(\N)NO)cc1OC` was tested, and the TGI [1] was > 100 µM, the TGI [2] was > 100 µM and the TGI [3] was > 100 µM. For the same compound, the TGI [4] was > 100 µM, the TGI [5] was > 100 µM and the TGI [6] was > 100 µM. The TGI [7] was > 100 µM.
